Measurements taken from ChEMBL document CHEMBL1151383, “Antitumor agents 50. 1 Morindaparvin-A, a new antileukemic anthraquinone, and alizarin-1-methyl ether from Morinda parvifolia, and the antileukemic activity of the related derivatives” (1982).
≈ marks a conversion by molar mass, not a printed value. Calls of active or inactive are those of the source. The rule behind the calls is not given here.

What was measured:
Assay type in all cases: functional
P388 [1] = experiment: Antileukemic activity against mouse P388 cells xenografted in BDF1 mouse at 10 mg/kg/day relative to control
KB = experiment: Cytotoxicity against human KB cells; conditions: read-out: ED50 (the source's name)
P388 [2] = experiment: Cytotoxicity against mouse P388 cells; conditions: read-out: ED50 (the source's name)
[3] = Antitumor activity against mouse CA-755 cells xenografted in mouse assessed as reduction in tumor weight at 450 mg/kg/day; parameters: scale not given: the % may be the effect or the level left

Structure (SMILES)	T/C (P388 [1]) [%]	Activity (P388 [1])	other results
O=C1c2ccccc2C(=O)c2c1ccc1c2OCCO1	130		
O=C(/C=C/c1ccccc1)Oc1ccc2c(c1O)C(=O)c1ccccc1C2=O		inactive	
COc1c(O)ccc2c1C(=O)c1ccccc1C2=O	136		EC50 (KB): > 10 µg/mL; EC50 (P388 [2]): 27 µg/mL (≈ 106 µM)
CC(C)=CC(=O)Oc1ccc2c(c1OC(=O)C=C(C)C)C(=O)c1ccccc1C2=O		inactive	
CC(C)=CC(=O)Oc1ccc2c(c1O)C(=O)c1ccccc1C2=O		inactive	
COc1ccc2c(c1O)C(=O)c1ccccc1C2=O	126		
O=C1c2ccccc2C(=O)c2c1ccc1c2OCO1	129		EC50 (KB): > 10 µg/mL; EC50 (P388 [2]): 1.85 µg/mL (≈ 7.33 µM)
O=C1c2ccccc2C(=O)c2c1ccc(O)c2O [ATHRAQUINONES A]	134		Activity [3]: 60%
O=C(/C=C/c1ccccc1)Oc1ccc2c(c1OC(=O)/C=C/c1ccccc1)C(=O)c1ccccc1C2=O		inactive	
CC(=O)Oc1ccc2c(c1O)C(=O)c1ccccc1C2=O		inactive	
CC(=O)Oc1ccc2c(c1OC(C)=O)C(=O)c1ccccc1C2=O		inactive	
